Here are results for 1 molecule from EP4635953A1, “PYRROLOPYRIDINE DERIVATIVE, AND PHARMACEUTICAL COMPOSITION THEREOF AND USE THEREOF” (Iregene Therapeutics Co., Ltd, priority 2022, dated 2024).

The target in this experiment is single-stranded miR-145. Description: Isothermal titration calorimetry (ITC), Waters Nano-ITC. It is filed as binding. Particulars: for Kd: Multiple Sites model. From the text: Isothermal titration calorimetry (ITC) utilizes the principle of power compensation to accurately obtain the enthalpy change of intermolecular interactions within a broad concentration range in the system through a single concentration scan. It measures the heat change during binding and provides the complete thermodynamic characteristics of nucleic acid-ligand interactions. Quantifying the thermodynamic properties and energy of the complex is essential for analyzing the molecular basis of the interaction between the microRNA miR-145 and the compound. The present invention uses the Waters Nano-ITC calorimeter to in vitro verify the nucleic acid-small molecule interactions.
The experimental process involves placing 300µL of a 50µM single-stranded miR-145 solution in a temperaturecontrolled sample chamber, and using small molecule A-3-6 (i.e., the 2-phenyl-N-(1H-pyrrolo[2,3-c]pyridine-5-yl)acetamide obtained in Example 9) as the ligand in a 50µL, 500µM concentration, which is gradually injected (or titrated) into the sample chamber. The heat change is measured by comparing the sample chamber with a reference chamber, showing either an endothermic or exothermic peak. The interaction pattern between the two reactants is fitted using the software provided by the instrument, and it directly calculates the reaction binding enthalpy (ΔH, kJ/mol), reaction binding entropy (ΔS, J/(mol·K)), number of binding sites (n), and binding equilibrium constant (Ka, M), obtaining the kinetic data. […] The calculated number of binding sites (nSite) for A-3-6 with miR-145 solution are n1=3 and n2=1.8, with Kd1=7.017E-8 and Kd2=7.544E-9, ΔH1=-69.08 and ΔH2=-137.2, ΔS1=-9.474E1 and ΔS2=-3.048E2.

Each structure is given as a SMILES string. Like-named read-outs stand apart in the source and are kept apart here.

With `O=C(Cc1ccccc1)Nc1cc2cc[nH]c2cn1` [Compound A-3-6, 2-Phenyl-N-(1H-Pyrrolo[2,3-c]pyridin-5-yl)acetamide], the Kd runs as follows: (site 1, read-out: Kd1) 70.2 nM; (site 2, read-out: Kd2) 7.54 nM. For the same molecule, the “binding to the target single-stranded miR-145” value (conclusion from the ITC experiment) was “can specifically bind”.
